Experimental data from ChEMBL document CHEMBL5465560, “Selectivity Literature for EUbOPEN Chemogenomic Library” (2024).

Experiments:
[1] = target: T1, SNF-related serine/threonine-protein kinase (Homo sapiens) (UniProt Q9NRH2); assay: Selectivity interaction (Kinase panel (KiNativ target engagement assay in Jurkat cells)) EUB0001635a SNRK; assay type: cell-based; conditions: at 1 µM
T1 sequence (whole entry): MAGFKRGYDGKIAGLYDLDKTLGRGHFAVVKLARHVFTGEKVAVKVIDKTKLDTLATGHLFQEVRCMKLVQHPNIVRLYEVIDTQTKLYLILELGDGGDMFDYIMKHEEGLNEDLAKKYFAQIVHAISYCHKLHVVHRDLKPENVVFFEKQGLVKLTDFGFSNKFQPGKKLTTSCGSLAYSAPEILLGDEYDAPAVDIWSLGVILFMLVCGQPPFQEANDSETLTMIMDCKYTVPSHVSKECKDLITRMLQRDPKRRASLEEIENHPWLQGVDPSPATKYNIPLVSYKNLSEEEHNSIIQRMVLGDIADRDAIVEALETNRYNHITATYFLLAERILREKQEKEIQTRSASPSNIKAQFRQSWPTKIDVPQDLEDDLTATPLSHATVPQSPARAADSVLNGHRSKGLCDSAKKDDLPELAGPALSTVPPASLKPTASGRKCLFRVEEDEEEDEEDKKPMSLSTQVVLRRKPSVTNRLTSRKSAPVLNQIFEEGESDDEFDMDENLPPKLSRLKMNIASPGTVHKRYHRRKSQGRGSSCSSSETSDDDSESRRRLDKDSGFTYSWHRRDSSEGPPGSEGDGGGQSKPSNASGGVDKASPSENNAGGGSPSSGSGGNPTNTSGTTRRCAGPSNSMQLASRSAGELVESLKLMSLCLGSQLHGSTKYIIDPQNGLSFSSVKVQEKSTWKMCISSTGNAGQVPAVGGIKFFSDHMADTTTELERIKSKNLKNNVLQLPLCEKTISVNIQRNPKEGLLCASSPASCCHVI

[2] = target: Ribosomal protein S6 kinase alpha-5 (Homo sapiens) (UniProt O75582); assay: Selectivity interaction (KinomeScan (DiscoverX)) EUB0000311b RPS6KA5; conditions: at 1 µM
Ribosomal protein S6 kinase alpha-5 (Homo sapiens), sequence (O75582 whole entry, looked up): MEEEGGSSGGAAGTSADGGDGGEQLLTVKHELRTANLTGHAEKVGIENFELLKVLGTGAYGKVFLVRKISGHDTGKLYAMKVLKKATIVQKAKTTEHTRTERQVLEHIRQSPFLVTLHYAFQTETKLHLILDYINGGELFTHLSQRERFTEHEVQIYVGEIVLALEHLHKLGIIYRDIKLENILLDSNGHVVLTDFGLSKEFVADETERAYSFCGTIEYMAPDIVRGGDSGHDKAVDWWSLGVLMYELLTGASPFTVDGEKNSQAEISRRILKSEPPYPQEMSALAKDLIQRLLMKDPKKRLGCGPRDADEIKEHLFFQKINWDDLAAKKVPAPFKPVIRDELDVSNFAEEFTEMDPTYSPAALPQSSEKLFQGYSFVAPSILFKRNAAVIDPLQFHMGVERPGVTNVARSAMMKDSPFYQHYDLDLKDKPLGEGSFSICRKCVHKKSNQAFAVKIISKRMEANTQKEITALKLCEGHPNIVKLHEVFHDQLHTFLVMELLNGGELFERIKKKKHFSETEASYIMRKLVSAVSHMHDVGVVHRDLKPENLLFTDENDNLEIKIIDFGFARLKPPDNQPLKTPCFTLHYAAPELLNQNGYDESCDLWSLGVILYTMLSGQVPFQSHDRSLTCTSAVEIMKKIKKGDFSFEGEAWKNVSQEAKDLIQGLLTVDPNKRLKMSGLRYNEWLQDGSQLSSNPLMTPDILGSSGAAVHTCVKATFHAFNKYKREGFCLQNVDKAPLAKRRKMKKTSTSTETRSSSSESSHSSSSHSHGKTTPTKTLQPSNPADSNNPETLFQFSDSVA

[3] = target: Calcium/calmodulin-dependent protein kinase type II subunit delta (Homo sapiens) (UniProt Q13557); assay: Selectivity interaction (KinomeScan (DiscoverX)) EUB0000595a CAMK2D; conditions: at 10 µM
Calcium/calmodulin-dependent protein kinase type II subunit delta (Homo sapiens), sequence (Q13557 whole entry): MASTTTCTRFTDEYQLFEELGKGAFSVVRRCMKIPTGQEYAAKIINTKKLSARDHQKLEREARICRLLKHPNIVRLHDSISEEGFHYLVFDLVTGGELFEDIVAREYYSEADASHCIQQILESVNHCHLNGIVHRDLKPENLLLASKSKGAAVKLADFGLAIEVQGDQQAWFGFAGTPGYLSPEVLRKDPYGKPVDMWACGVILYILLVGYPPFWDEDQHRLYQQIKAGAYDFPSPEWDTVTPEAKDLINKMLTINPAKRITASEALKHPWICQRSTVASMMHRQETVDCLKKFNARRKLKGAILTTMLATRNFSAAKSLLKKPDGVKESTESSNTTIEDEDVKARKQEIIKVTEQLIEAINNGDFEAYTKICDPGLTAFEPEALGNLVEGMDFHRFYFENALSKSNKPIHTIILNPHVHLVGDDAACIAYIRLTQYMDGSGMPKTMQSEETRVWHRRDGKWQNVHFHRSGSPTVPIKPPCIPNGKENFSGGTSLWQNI

[4] = target: Serine/threonine-protein kinase WNK3 (Homo sapiens) (UniProt Q9BYP7); assay: Selectivity interaction (KinomeScan (DiscoverX)) EUB0000695a WNK3; conditions: at 100 nM
[5] = target: Proto-oncogene tyrosine-protein kinase Src (Homo sapiens, UniProt P12931); assay: Selectivity interaction (KinomeScan (DiscoverX)) EUB0001079a SRC; conditions: at 1 µM
[6] = target: Receptor tyrosine-protein kinase erbB-3 (Homo sapiens) (UniProt P21860); assay: Selectivity interaction (KinomeScan (DiscoverX)) EUB0000666a ERBB3; conditions: at 10 µM
Receptor tyrosine-protein kinase erbB-3 (Homo sapiens), sequence (P21860 whole entry): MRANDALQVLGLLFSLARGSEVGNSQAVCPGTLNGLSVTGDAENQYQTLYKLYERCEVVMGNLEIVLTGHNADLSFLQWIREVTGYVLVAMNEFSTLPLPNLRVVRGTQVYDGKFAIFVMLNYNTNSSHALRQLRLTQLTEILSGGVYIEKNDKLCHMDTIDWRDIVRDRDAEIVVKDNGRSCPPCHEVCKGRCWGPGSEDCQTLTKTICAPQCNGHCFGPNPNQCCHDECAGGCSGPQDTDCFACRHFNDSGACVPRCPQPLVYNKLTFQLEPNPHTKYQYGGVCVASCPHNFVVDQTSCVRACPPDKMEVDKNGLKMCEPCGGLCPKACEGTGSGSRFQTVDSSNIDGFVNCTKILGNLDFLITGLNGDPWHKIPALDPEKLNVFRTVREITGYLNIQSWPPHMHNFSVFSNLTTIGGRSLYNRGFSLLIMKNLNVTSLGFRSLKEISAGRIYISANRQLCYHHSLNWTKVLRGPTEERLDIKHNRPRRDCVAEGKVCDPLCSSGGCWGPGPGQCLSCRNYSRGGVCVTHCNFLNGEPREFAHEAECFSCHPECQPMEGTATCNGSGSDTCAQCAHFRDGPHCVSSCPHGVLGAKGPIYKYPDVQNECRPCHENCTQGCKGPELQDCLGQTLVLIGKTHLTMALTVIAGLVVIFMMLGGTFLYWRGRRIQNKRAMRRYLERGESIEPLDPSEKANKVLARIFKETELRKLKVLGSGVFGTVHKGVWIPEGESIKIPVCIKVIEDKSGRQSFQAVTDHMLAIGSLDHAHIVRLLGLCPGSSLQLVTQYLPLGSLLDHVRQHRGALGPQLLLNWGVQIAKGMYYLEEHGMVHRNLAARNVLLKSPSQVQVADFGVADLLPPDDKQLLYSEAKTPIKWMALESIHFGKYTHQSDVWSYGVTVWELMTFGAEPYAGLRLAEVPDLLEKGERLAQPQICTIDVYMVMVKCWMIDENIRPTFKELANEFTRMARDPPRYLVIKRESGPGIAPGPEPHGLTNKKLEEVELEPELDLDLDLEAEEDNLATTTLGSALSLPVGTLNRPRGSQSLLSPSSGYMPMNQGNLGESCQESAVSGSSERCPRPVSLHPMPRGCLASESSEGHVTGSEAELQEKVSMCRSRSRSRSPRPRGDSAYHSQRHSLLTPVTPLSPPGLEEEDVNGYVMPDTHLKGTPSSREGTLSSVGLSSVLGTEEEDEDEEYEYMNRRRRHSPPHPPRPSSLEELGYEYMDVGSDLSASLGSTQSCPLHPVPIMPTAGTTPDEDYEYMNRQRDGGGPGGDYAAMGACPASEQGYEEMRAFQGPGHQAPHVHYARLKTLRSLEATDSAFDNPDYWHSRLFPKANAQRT

[7] = target: T2, N-lysine methyltransferase KMT5A (Homo sapiens) (UniProt Q9NQR1); assay: Selectivity interaction (Transferase panel (protein, RNA, and DNA methyltransferases. and EP300 (acetyltransferase))) EUB0000270b SETD8
T2 sequence (whole entry): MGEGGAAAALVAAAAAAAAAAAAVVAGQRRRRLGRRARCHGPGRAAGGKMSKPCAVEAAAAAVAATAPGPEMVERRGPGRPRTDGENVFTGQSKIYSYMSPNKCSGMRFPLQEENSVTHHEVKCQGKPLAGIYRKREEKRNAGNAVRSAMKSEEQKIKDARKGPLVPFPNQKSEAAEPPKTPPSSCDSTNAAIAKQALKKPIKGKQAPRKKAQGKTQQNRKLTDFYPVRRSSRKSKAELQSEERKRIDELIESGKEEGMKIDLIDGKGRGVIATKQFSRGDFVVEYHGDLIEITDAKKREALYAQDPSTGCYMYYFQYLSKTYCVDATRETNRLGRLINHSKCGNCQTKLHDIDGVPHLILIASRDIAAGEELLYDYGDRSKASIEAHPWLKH

[8] = target: Serine/threonine-protein kinase MRCK beta (Homo sapiens) (UniProt Q9Y5S2); conditions: at 10 µM
[9] = target: T3, cGMP-dependent protein kinase 1 (Homo sapiens) (UniProt Q13976); assay: Selectivity interaction (ProQinase) EUB0000171b PRKG1
T3 sequence (whole entry): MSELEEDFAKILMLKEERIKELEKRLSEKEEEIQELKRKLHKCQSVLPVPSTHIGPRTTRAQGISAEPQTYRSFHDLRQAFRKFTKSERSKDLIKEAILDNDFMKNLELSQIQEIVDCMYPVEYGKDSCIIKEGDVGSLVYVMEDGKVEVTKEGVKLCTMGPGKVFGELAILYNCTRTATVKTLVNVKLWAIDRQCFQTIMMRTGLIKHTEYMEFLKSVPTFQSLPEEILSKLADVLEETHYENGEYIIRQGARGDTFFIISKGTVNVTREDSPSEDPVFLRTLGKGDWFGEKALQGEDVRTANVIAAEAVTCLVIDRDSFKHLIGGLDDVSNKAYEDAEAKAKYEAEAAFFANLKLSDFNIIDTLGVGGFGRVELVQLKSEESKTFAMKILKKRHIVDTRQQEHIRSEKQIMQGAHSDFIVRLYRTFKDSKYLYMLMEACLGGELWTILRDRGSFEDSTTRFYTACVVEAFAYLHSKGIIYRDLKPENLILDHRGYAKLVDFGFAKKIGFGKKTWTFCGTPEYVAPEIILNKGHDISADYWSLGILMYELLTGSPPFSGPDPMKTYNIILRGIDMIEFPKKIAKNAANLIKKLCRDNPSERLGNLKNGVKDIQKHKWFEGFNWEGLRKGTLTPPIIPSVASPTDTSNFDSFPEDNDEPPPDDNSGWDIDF

[10] = target: Serine/threonine-protein kinase N2 (Homo sapiens, UniProt Q16513); assay: Selectivity interaction (KinomeScan (DiscoverX)) EUB0001619a PKN2; conditions: at 1 µM
Serine/threonine-protein kinase N2, sequence (Q16513 whole entry, looked up): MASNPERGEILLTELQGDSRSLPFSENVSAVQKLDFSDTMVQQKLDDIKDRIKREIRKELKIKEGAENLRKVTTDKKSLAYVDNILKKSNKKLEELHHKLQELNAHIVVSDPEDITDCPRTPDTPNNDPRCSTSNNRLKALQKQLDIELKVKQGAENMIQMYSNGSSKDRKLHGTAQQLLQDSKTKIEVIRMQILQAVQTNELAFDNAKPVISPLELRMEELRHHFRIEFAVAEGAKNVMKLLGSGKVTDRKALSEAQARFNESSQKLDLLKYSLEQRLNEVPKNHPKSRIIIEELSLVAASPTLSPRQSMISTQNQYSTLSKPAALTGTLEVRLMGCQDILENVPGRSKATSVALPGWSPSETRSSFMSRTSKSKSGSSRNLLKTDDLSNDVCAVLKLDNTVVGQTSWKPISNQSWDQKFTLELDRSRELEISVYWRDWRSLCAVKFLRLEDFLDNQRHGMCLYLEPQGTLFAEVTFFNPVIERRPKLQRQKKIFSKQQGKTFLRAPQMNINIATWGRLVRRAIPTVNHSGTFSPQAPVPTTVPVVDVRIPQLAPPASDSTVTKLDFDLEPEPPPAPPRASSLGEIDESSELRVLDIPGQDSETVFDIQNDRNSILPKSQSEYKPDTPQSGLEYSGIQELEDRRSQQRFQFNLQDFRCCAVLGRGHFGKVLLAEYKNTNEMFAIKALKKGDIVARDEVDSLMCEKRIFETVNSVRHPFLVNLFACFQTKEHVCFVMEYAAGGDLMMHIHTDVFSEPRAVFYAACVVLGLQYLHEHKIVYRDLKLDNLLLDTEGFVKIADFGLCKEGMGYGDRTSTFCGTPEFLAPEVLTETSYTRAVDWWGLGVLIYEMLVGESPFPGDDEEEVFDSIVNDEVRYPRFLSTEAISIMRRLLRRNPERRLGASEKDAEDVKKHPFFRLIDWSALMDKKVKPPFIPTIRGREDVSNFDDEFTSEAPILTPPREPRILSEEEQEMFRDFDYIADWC

[11] = target: Mitogen-activated protein kinase kinase kinase 10 (Homo sapiens) (UniProt Q02779); assay: Selectivity interaction (KinomeScan (DiscoverX)) EUB0000618a MAP3K10; conditions: at 10 µM
[12] = target: Cyclin-dependent kinase 16 (Homo sapiens) (UniProt Q00536); assay: Selectivity interaction (ActivX KiNativ screen (kinase selectivity in THP-1 cell lysates)) EUB0000639a CDK16; assay type: subcellular; conditions: lysate, at 0.04 µM
Cyclin-dependent kinase 16 (Homo sapiens), sequence (Q00536 whole entry): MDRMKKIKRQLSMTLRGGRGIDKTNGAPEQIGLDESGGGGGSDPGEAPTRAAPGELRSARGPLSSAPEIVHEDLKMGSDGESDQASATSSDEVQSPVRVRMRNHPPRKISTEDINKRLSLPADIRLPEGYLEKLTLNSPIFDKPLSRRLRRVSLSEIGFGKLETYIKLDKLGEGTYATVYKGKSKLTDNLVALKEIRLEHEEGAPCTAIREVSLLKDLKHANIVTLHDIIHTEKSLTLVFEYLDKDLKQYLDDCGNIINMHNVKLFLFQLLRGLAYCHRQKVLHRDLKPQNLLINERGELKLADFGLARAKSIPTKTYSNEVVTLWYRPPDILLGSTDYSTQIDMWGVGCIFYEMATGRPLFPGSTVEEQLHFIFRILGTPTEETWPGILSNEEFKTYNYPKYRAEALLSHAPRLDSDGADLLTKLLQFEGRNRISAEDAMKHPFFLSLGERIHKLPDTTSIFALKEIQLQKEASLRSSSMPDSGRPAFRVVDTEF

[13] = target: Protein kinase C eta type (Homo sapiens) (UniProt P24723); assay: Selectivity interaction (KinomeScan (DiscoverX)) EUB0000655a PRKCH; conditions: at 10 µM
[14] = target: Tyrosine-protein kinase Srms (Homo sapiens) (UniProt Q9H3Y6); assay: Selectivity interaction (Ambit KINOMEscan and KiNATiv profiling in Jurkat cells) EUB0000090b SRMS; assay type: cell-based; conditions: at 1 µM
Tyrosine-protein kinase Srms (Homo sapiens), sequence (Q9H3Y6 whole entry): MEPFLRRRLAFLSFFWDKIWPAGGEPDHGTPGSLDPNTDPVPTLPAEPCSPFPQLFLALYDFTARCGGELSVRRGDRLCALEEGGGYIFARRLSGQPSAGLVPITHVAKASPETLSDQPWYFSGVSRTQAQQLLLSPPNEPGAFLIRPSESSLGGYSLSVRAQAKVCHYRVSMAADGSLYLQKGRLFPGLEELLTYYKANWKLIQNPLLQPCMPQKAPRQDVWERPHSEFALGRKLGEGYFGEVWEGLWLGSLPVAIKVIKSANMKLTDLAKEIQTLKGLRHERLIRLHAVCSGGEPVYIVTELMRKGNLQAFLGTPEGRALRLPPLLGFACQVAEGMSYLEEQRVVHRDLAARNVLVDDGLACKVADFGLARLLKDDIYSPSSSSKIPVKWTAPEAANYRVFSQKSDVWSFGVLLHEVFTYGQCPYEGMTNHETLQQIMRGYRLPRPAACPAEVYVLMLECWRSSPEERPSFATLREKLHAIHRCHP

C=CC(=O)Nc1ccc(C(=O)Nc2[nH]nc3c2CN(C(=O)N[C@H](CN(C)C)c2ccccc2)C3(C)C)cc1
% of engagement ([1]; Selectivity number of off-targets 0.0, Selectivity number of targets 233.0, Source Knowledge https://www.sciencedirect.com/science/article/pii/S2451945619300674?via%3Dihub): 6.9%
% of engagement [1]: 30.4%

CCc1ccccc1C(=O)Nc1n[nH]c2c(C)c(F)c(C3C(C#N)=C(C)N(C)C(C)=C3C#N)cc12 [BAY-3827]
% of control [2]: 1%

COCC(=O)NC/C=C/c1ccc2ncnc(Nc3ccc(Oc4ccc(C)nc4)c(C)c3)c2c1 [CP-724714]
% of control [3]: 100%

Cc1cc(F)c(C(=O)Nc2cccc(-c3nncn3C(C)C)n2)cc1-n1cnc(C2CC2)c1
% of control [4]: 100%

Nc1cnc(N2CCc3cc(S(=O)(=O)Nc4c(F)cc(Cl)cc4F)cc(N4CCCC4=O)c32)nc1 [TP-020n]
% of control [5]: 99%

O=C(NOC[C@H](O)CO)c1ccc(F)c(F)c1Nc1ccc(I)cc1F
% of control [6]: 100%

Cc1cc(CN)cc(C)c1-c1ncn(C)c1-c1cncn1C
% activity ([7]; at 1 µM): > 90%
% activity ([7]; at 10 µM): > 80%

Cc1cc([C@@H](C)Nc2ccccc2C(=O)O)c2nc(N3CCOCC3)cc(=O)n2c1 [AZD-6482]
% of control [8]: 100%

C=CC(=O)Nc1cccc(C(=O)Nc2ccc(Nc3cc(-c4[nH]c(SC)nc4C)ccn3)cc2)c1
% of control ([9]; at 1 µM): 92%
% of control ([9]; at 5 µM): 87%

N#Cc1cccc(-c2c[nH]c3ncnc(N4CCOCC4)c23)c1
% of control [10]: 35%

O[C@H]1CC[C@H](Nc2ncc3nc(Nc4c(F)cc(F)cc4F)n([C@H]4CCOC4)c3n2)CC1
% of control [11]: 100%

CC[C@@H]1[C@H](F)C(=O)N[C@@H]1COc1nccc2cc(C(N)=O)c(OC)cc12 [ZIMLOVISERTIB]
% of inhibition [12]: 0.5%

CN(C)CCOc1ccc(-c2nc(-c3ccncc3)c(-c3ccc4c(c3)CC/C4=N\O)[nH]2)cc1
% of control [13]: 100%

CN(C)C/C=C/C(=O)Nc1ccc(C(=O)N2CCCC(Nc3ncc(Cl)c(-c4c[nH]c5ccccc45)n3)C2)cc1 (configuration not stated)
% of control [14]: 99%
